From ChEMBL document CHEMBL1122867, “Inhibition of human leukocyte elastase, porcine pancreatic elastase, and chymotrypsin by elasnin and other 4-hydroxy-2-pyrones” (J Med Chem, 1985)

What was measured:
[1] = biological target: Chymotrypsin-like elastase family member 1 (Sus scrofa, UniProt P00772); test: Inhibitory activity against porcine pancreatic elastase (PP elastase) expressed as inhibitory constant
Neutrophil elastase = biological target: T1, Neutrophil elastase (Homo sapiens, UniProt P08246); test: Inhibitory activity against human leukocyte elastase (HL elastase) expressed as inhibitory constant
T1 sequence (P08246 whole entry): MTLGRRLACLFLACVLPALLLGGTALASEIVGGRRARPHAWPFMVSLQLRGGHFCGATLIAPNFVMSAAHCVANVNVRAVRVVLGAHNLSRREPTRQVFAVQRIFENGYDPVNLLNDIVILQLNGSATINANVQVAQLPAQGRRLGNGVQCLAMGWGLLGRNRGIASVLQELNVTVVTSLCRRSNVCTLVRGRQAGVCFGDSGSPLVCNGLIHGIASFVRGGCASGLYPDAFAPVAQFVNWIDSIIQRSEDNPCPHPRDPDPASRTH

[2] = Partition coefficient (logP) (octanol/saline); type: physicochemical

Chymotrypsin-like elastase family member 1, sequence (P00772 whole entry): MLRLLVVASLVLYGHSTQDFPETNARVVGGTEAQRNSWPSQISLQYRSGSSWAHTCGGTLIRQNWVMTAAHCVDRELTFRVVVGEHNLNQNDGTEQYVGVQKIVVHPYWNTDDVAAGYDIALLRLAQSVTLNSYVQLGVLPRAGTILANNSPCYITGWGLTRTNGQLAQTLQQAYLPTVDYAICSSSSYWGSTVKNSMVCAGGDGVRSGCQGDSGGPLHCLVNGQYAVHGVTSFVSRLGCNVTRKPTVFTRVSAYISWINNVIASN

Row | Ki [1] [µM] | Ki (Neutrophil elastase) [µM] | logP [2] | SMILES
1 | 2140 | 977 | 0.78 | Cc1c(O)cc(CC(=O)c2ccccc2)oc1=O
2 | 562 | 646 | 0.79 | CCCCc1c(C)oc(O)c(CCCC)c1=O
3 | – | 10000 | 0.43 | O=C(Cc1cc(=O)cc(O)o1)c1ccccc1
4 | 251 | 288 | 2.82 | CCCCc1c(CC(C)=O)oc(=O)c(CCCC)c1OC(C)=O
5 | 3890 | 6310 | 0.74 | Cc1cc(O)c(C)c(=O)o1
6 | 8.13 | – | 3.53 | CCCCCC(=O)C(CCCC)c1oc(=O)c(CCCC)c(OC(C)=O)c1CCCC (stereo unspecified)
7 | 3240 | 6030 | 0.73 | Cc1c(CC(=O)c2ccccc2)oc(=O)c(C)c1O
8 | 316 | 339 | 2.17 | CCCCc1c(C2OC2C)oc(=O)c(CCCC)c1OC(C)=O (stereo unspecified)
9 | 15.1 | 151 | 1.52 | CCCCCCC(C=O)(CCCC)c1oc(=O)c(CCCC)c(O)c1CCCC (stereo unspecified)
10 | 21900 | 4900 | 0.36 | Cc1oc(=O)c(C)c(O)c1C
11 | 69.2 | 93.3 | 2.52 | CCCCCC(=O)C(CCCC)c1oc(=O)c(CCCC)c(O)c1CCCC (stereo unspecified)
12 | 141 | 363 | 1.39 | C/C=C(\c1ccccc1)c1oc(=O)c(CCCC)c(O)c1CCCC
13 | 741 | 490 | 1.74 | CCCCc1c(CC(C)=O)oc(=O)c(CCCC)c1O
14 | 21.4 | 95.5 | 1.21 | CCCCc1c(C(CCCC)C(=O)c2ccccc2)oc(=O)c(CCCC)c1O (stereo unspecified)
15 | 1070 | 347 | 1.92 | CCCCc1c(CC(C)O)oc(=O)c(CCCC)c1OC(C)=O (stereo unspecified)
16 | 3090 | 8130 | 0.5 | Cc1cc(O)cc(=O)o1 [4-HYDROXY-6-METHYLPYRAN-2-ONE]
